Results: ChEMBL document CHEMBL2086310, “Alkaloids from Pachysandra terminalis inhibit breast cancer invasion and have potential for development as antimetastasis therapeutic agents” (J Nat Prod, 2012)
Activity calls are given as the source filed them. No cut-off for these calls is given here.

Tested on: MDA-MB-231
Experiment: Inhibition of epithelial growth factor-induced cell migration of human MDA-MB-231 cells at 10 uM pre-incubated for 24 hrs by cell invasion assay
Format: functional, cell-based

| SMILES | inhibition |
| --- | --- |
| CC(=O)[C@H]1CC[C@H]2[C@@H]3CC[C@H]4C[C@]5(CC[C@]4(C)[C@H]3CC[C@]12C)c1ccccc1C(=O)N5C | inactive |
| CC(=O)[C@H]1CC[C@H]2[C@@H]3CC[C@H]4C[C@H](N(C)C(=O)c5ccccc5)CC[C@]4(C)[C@H]3CC[C@]12C | inactive |
| CC(=O)[C@H]1CC[C@H]2[C@@H]3CC[C@H]4C[C@H](N(C)C(=O)C=C(C)C)CC[C@]4(C)[C@H]3CC[C@]12C | inactive |

Molecular target: Integrin beta-1 (Homo sapiens) (UniProt P05556)
Experiment: Inhibition of integrin beta1 phosphorylation in human […] cells at 1 to 10 uM incubated for 24 hrs by Western blot
Format: cell-based

Sequence of Integrin beta-1 (Homo sapiens) (P05556 whole entry): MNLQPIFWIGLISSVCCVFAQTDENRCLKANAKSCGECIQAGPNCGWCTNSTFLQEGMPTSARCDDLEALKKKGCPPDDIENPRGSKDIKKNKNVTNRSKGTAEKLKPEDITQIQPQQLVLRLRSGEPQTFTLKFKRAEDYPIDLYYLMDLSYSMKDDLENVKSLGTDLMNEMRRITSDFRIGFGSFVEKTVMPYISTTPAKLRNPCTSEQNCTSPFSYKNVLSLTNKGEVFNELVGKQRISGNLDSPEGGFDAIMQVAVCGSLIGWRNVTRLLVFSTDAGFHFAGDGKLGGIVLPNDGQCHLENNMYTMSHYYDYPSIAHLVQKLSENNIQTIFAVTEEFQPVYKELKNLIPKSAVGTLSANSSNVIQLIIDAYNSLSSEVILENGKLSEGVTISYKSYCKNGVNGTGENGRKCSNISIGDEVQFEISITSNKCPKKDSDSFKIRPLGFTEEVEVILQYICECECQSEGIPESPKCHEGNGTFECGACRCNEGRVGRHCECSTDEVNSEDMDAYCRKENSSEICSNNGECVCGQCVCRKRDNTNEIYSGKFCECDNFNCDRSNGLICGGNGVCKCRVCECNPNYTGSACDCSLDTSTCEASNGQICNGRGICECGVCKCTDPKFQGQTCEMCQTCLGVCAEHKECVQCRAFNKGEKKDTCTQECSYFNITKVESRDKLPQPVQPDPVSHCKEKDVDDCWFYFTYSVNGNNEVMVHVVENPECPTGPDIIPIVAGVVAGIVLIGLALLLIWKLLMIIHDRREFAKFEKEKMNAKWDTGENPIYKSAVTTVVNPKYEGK

| inhibition | SMILES |
| --- | --- |
| Dose-dependent effect | CC(C)[C@H]1CN([C@H]2CC[C@@]3(C)[C@@H](CC[C@@H]4[C@@H]3CC[C@]3(C)[C@@H]([C@H](C)N(C)C)[C@@H](O)C[C@@H]43)C2=O)C1=O [TERMINAMINE A] |

Tested on: MDA-MB-231
Experiment: Inhibition of epithelial growth factor-induced cell migration of human MDA-MB-231 cells pre-incubated for 24 hrs by cell invasion assay
Format: functional, cell-based

| IC50 [nM] | SMILES |
| --- | --- |
| 70 | CC(C)=C1CN([C@@H]2CC[C@@]3(C)[C@@H](CC[C@@H]4[C@@H]3CC[C@]3(C)[C@@H]([C@H](C)N(C)C)CC[C@@H]43)[C@H]2O)C1=O [TERMINAMINE E] |
| 80 | CC(=O)O[C@@H]1C[C@H](N2C[C@H](C(C)C)C2=O)[C@H](O)[C@@H]2CC[C@@H]3[C@H]([C@H](OC(=O)CC(C)C)C[C@]4(C)[C@@H]([C@H](C)N(C)C)[C@@H](O)C[C@@H]34)[C@@]12C [TERMINAMINE C] |
| 1740 | C/C=C1\C(=O)C[C@H]2[C@@H]3CC[C@H]4C[C@@H](N(C)C)CC[C@]4(C)[C@H]3CC[C@]12C [Z-salignone] |
| 180 | CC(C)[C@H]1CN([C@H]2CC[C@@]3(C)[C@@H](CC[C@@H]4[C@@H]3CC[C@]3(C)[C@@H]([C@H](C)N(C)C)[C@@H](O)C[C@@H]43)C2=O)C1=O [TERMINAMINE A] |
| 190 | CC(C)[C@@H]1CN([C@H]2CC[C@@]3(C)[C@@H](CC[C@@H]4[C@@H]3CC[C@]3(C)[C@@H]([C@H](C)N(C)C)CC[C@@H]43)[C@H]2O)C1=O [PACHYSTERMINE B] |
| 200 | CC(=O)O[C@@H]1C[C@]2(C)[C@@H]([C@H](C)N(C)C)[C@@H](O)C[C@H]2[C@@H]2CC[C@H]3[C@@H](O)[C@@H](N4C[C@H](C(C)C)C4=O)C[C@@H](OC(C)=O)[C@]3(C)[C@H]21 [TERMINAMINE B] |
| 200 | CC(C)=C1CN([C@@H]2CC[C@@]3(C)[C@@H](CC[C@@H]4[C@@H]3CC[C@]3(C)[C@@H]([C@H](C)N(C)C)[C@@H](O)C[C@@H]43)[C@H]2O)C1=O [TERMINAMINE D] |

The remaining lines, values behind:

| SMILES | IC50 [nM] |
| --- | --- |
| C[C@@H]([C@H]1CC[C@H]2[C@@H]3CC[C@H]4[C@H](O)[C@@H](O)CC[C@]4(C)[C@H]3CC[C@]12C)N(C)C [TERMINALINE] | 360 |
| O=c1cc(N2CCOCC2)oc2c(-c3ccccc3)cccc12 [LY-294002] | 380 |
| C/C=C1/C(=O)C[C@H]2[C@@H]3CC[C@H]4C[C@@H](N(C)C)CC[C@]4(C)[C@H]3CC[C@]12C | 870 |
| CC(C)=CC(=O)N[C@H]1CC[C@@]2(C)[C@@H](CC[C@@H]3[C@@H]2CC[C@]2(C)[C@@H]([C@H](C)N(C)C)CC[C@@H]32)C1 [EPIPACHYSAMINE E] | 410 |
| CC(C)[C@@H]1CN([C@H]2CC[C@@]3(C)[C@@H](CC[C@@H]4[C@@H]3CC[C@]3(C)[C@@H]([C@H](C)N(C)C)CC[C@@H]43)C2=O)C1=O [PACHYSTERMINE A] | 320 |
| C[C@@H]([C@H]1CC[C@H]2[C@@H]3CC[C@H]4C[C@@H](NC(=O)c5cccnc5)CC[C@]4(C)[C@H]3CC[C@]12C)N(C)C [EPIPACHYSAMINE B] | 350 |
